Data taken from patent publication US6548540B2, “Method of treating cancer using dithiocarbamate derivatives” (Charlotte-Mecklenburg Hospital Authority, priority 1998, dated 2003).
Read-outs that look alike come from different tables or passages of the source.

Columns and labels:
bcl-2 = assay: Immunoblot for bcl-2; format: cell-based, human; conditions: cell lines studied; data not shown
Description: (§1) Cells were lysed and proteins were isolated and quantitated by immunoassay as previously detailed using 2 μg/ml of primary rabbit polyclonal antibodies against human bcl-2, p53, p21^WAF1/CiP1, cyclin A and cyclin B1, and peroxidase-labeled donkey polyclonal anti-rabbit IgG. Cells were placed on ice, washed twice with cold DPBS, scraped into 0.5 ml boiling buffer (10% [vol/vol] glycerol and 2% [wt/vol] sodium dodecyl sulfate [SDS] in 83 mM Tris, pH 6.8) and sheared by four passages through a pipette. Aliquots were removed for protein determination, using the BCA protein assay (Pierce). After 10% β-mercaptoethanol and 0.05% bromophenol blue were added, lysates were boiled for 5 min and stored at −80° C. until immunoblotting was performed. Proteins in defrosted samples were separated by SDS-polyacrylamide gel electrophoresis on 12% polyacrylamide gels (15 μg protein/lane) and electrotransferred to 0.45 μm Hybond ECL nitrocellulose membranes (Amersham Life Sciences) using the wet transblot method in transfer buffer (0.025 M Tris, 0.192 M glycine, 2.6 mM SDS, and 20%[vol/vol] methanol; pH 8.8) at 100 volts for 1 hour. […] Immunoblots were rinsed again as above and detected via an enhanced chemiluminescence method (ECL Western blotting detection system, Amersham Life Science, Buckinghamshire, England). […]

[1] = system: Adenosquamous lung carcinoma NCI-H596; assay: MTT proliferation assay, adenosquamous lung carcinoma; format: cell-based; conditions: Homo sapiens, read-out: Mean Percent Inhibition of Growth; for inhibition at 0.625 µM: disulfiram 0.625 μM; for inhibition at 1.25 µM: disulfiram 1.25 μM; for inhibition at 2.5 µM: disulfiram 2.5 μM; for inhibition at 5 µM: disulfiram 5.0 μM
Description: (§2) Human malignant cell lines were obtained from American Type Tissue Culture Collection (Rockville, Md.). Melanoma cells lines CRL 1585 and 1619 were cultured in RPMI 1640 (GIBCO-BRL, Life Technologies, Grand Island, N.Y.) with 10% FBS and passed with nonenzymatic Cell Dissociation Solution® (Sigma). The prostate adenocarcinoma cell line CRL 1435 (PC-3) was also cultured in RPMI 1640 with 10% FBS but passed with 0.05% trypsin and 0.53 mM EDTA. The squamous lung carcinoma NCI-H520 and the adenosquamous lung carcinoma NCI-H596 cell lines were grown in RPMI 1640 supplemented with 10% FBS, 10 mM HEPES and 1.0 mM sodium pyruvate and passed with trypsin/EDTA. The small cell lung carcinoma NCI-H82 was cultured as a suspension in RPMI 1640 with 10% FBS. All of the above were grown in a 37° C. humidified environment containing 5% CO2/air. The breast carcinoma cell line MDA-MB-453 was grown in a 37° C. humidified environment with free gas exchange with atmospheric air using Leibovitz's L-15 medium with 2 mM L-glutamine and 10% FBS and was passed with trypsin/EDTA.
(§3) The effect of disulfiram (0.15 to 5.0 μM), diethyldithiocarbamate (DDC, 1.0 μM) or PDTC (0.625 to 5.0 μM) on proliferation of malignant cell lines was studied in cultures stimulated with 10% FBS. Cell numbers were quantitated 24-72 hours later. In some experiments disulfiram or PDTC were added immediately after cells were plated. In other experiments, cells were plated and allowed to grow for 24-72 hours before fresh media with disulfiram or PDTC was added, and cell numbers were assayed 24-72 hours later. Synergy was studied between disulfiram and N,N′-bis(2-chloroethyl-N-nitrosourea (carmustine or BCNU, 1.0 to 1,000 μM) or cisplatin (0.1 to 100 μg/ml) added to medium. The effect of metals on disulfiram was studied with 0.2 to 10 μM copper (provided as CuSO4), zinc (as ZnCl2), silver (as silver lactate) or gold (as HAuCl4.3H2O) ions added to growth medium. No pH changes occurred with addition of metal salts to culture medium. To provide a biologically relevant source of copper, in some experiments medium was supplemented with human ceruloplasmin at doses replicating low and high normal adult serum concentrations (250 and 500 μg/ml).
(§4) Proliferation of cultured cells was quantitated using a previously reported calorimetric method based upon metabolic reduction of the soluble yellow tetrazolium dye 3-[4,5-dimethylthiazol]-2yl-2,5-diphenyl tetrazolium bromide (MTT) to its insoluble purple formazan by the action of mitochondrial succinyl dehydrogenase (See, e.g., S. J. Hirst, et al., “Quantifying proliferation of cultured human and rabbit airway smooth muscle in response to serum and platelet derived growth factor,” Am. J. Respir. Cell Mol. Biol. 7:574-581 (1992); R. Dashtaki, et al. R., supra; S. S. Brar, et al., “Requirement for reactive oxygen species in serum-induced and platelet-derived growth factor-induced growth of airway smooth muscle,” J. Biol. Chem. 274:20017-20026 (1999)). This assay empirically distinguishes between dead and living cells. For proliferation studies, cells were seeded into 24-well uncoated plastic plates (Costar) at 50,000 cells per well and cultured with respective media and mitogens. After 24-96 hours, medium was removed, cells were washed twice with 1 ml of sterile Dulbecco's modified phosphate buffered saline without Ca^2+ or Mg^2+ (DPBS), the medium was replaced with 1 ml/well fresh medium containing 100 μg/ml MTT, and plates were incubated an additional hour. MTT-containing medium was removed, 0.5 ml dimethylsulfoxide (DMSO) was added to each well, and the absorbance of the solubilized purple formazan dye was measured at 540 nm. A total of 4-6 wells were studied at each treatment condition. Preliminary studies were performed with 50-200 μg/ml MTT incubated for 15 minutes to 3 hours to determine the optimum concentration and incubation time at which the rate of conversion was linear and proportional to the number of cells present. […]

p21WAF1/CIP1 = assay: Immunoblot for p21WAF1/CIP1; format: cell-based, human; conditions: cell lines studied; data not shown
Description: as §1

cyclin B1 = assay: Immunoblot for cyclin B1; format: cell-based, human; conditions: disulfiram plus copper; data not shown
Description: as §1

Melanoma M1585 = assay: MTT proliferation assay, M1585 melanoma; format: cell-based; conditions: Homo sapiens; for inhibition at 0.625 µM: disulfiram 0.625 μM; for inhibition at 0.625 µM / inhibition at 1.25 µM / inhibition at 2.5 µM / inhibition at 5 µM: read-out: Mean Percent Inhibition of Growth; for inhibition at 1.25 µM: disulfiram 1.25 μM; for inhibition at 2.5 µM: disulfiram 2.5 μM; for inhibition at 5 µM: disulfiram 5.0 μM
Description: as §2, §3, §4

[2] = treatment after 24 hours of growth, additional 24 hours
[3] = treatment initially, after 48 hours, 10% FBS
[4] = treatment after 24 hours of growth

CCN(CC)C(=S)SSC(=S)N(CC)CC [Disulfiram, tetraethylthiuram disulfide]
expression of bcl-2 (bcl-2): no consistent effect | inhibition at 0.625 µM [1, 2]: 30 ± 3% | inhibition at 0.625 µM [1, 3]: 47 ± 4% | inhibition at 1.25 µM [1, 2]: 30 ± 3% | inhibition at 1.25 µM [1, 3]: 57 ± 4% | inhibition at 2.5 µM [1, 2]: 29 ± 1% | inhibition at 2.5 µM [1, 3]: 50 ± 3% | inhibition at 5 µM [1, 2]: 34 ± 3% | inhibition at 5 µM [1, 3]: 50 ± 4% | expression of p21WAF1/CIP1 (p21WAF1/CIP1): no consistent effect | levels of B1 (cyclin B1): remained unchanged | IC50 (Melanoma M1585; M1585 melanoma cells, read-out: 50% inhibitor concentration (IC50)): 300 nM | inhibition at 0.625 µM (Melanoma M1585; [4]): 74 ± 4% | inhibition at 0.625 µM (Melanoma M1585; [3]): 100% | inhibition at 1.25 µM (Melanoma M1585; [4]): 49 ± 7% | inhibition at 1.25 µM (Melanoma M1585; [3]): 100% | inhibition at 2.5 µM (Melanoma M1585; [4]): 41 ± 2% | inhibition at 2.5 µM (Melanoma M1585; [3]): 100% | inhibition at 5 µM (Melanoma M1585; [4]): 37 ± 6% | inhibition at 5 µM (Melanoma M1585; [3]): 100%
